Assay results: US4515941A, “23-Demycinosyldesmycosin derivatives” (Toyo Jozo Kabushiki Kaisha, priority 1982, dated 1985)
In brackets after ≈: the same amount, converted by molar mass. Like-named read-outs stand apart in the source and are kept apart here.

Columns and labels:
Format in all cases: cell-based
[1] = tested on: Streptococcus agalactiae 1020; assay: MIC, Streptococcus agalactiae 1020; details: Streptococcus agalactiae 1020; read-out: MIC
[2] = tested on: Staphylococcus aureus 0119; assay: MIC, Staphylococcus aureus 0119 (macrolide resistant); details: macrolide resistant bacteria A group
Text: (§1) *macrolide resistant bacteria A group (clinical isolates of erythromycin,
(§2) oleandomycin and 16membered macrolide antibiotic resistant strains.)

Proteus vulgaris OX19 = assay: MIC, Proteus vulgaris OX19
[3] = tested on: Salmonella enteritidis Gaertner; assay: MIC, Salmonella enteritidis Gaertner; details: Salmonella enterica
[4] = tested on: Bacillus subtilis ATC 6633; assay: MIC, Bacillus subtilis ATC 6633
[5] = tested on: Klebsiella pneumoniae ATCC 10031; assay: MIC, Klebsiella pneumoniae ATCC 10031
[6] = tested on: Staphylococcus epidermis sp-al-1; assay: MIC, Staphylococcus epidermis sp-al-1; details: SPAL1; Staphylococcus epidermis sp-al-1; read-out: MIC
[7] = tested on: Corynebacterium diptheriae P.Y.8; assay: MIC, Corynebacterium diptheriae P.Y.8
Shigella sonnei E33 = assay: MIC, Shigella sonnei E33
Serratia marcescens = assay: MIC, Serratia marcescens
[8] = tested on: Staphylococcus aureus ATCC 6538P; assay: MIC, Staphylococcus aureus ATCC 6538P; details: ATCC6538P, read-out: MIC
Sarcina lutea ATCC 9341 = assay: MIC, Sarcina lutea ATCC 9341; details: Micrococcus luteus, ATCC9341
[9] = tested on: Shigella flexineri type 3a; assay: MIC, Shigella flexineri type 3a; details: TYPE3A
[10] = tested on: Staphylococcus aureus 0127; assay: MIC, Staphylococcus aureus 0127 (macrolide resistant); details: Staphylococcus aureus 0127; macrolide resistant bacteria A group; read-out: MIC
Text: as §1, §2

Escherichia coli B = assay: MIC, Escherichia coli B
[11] = tested on: Escherichia coli NIHJ-JC2; assay: MIC, Escherichia coli NIHJ-JC2; details: NIHJJC2
[12] = tested on: Staphylococcus aureus MS353; assay: MIC, Staphylococcus aureus MS353; details: Staphylococcus aureus MS353; read-out: MIC
[13] = tested on: Staphylococcus aureus MS353 C36; assay: MIC, Staphylococcus aureus MS353 C36; details: MS353C36
[14] = tested on: Streptococcus faecalis 1501; assay: MIC, Streptococcus faecalis 1501
Salmonella typhosa H901 = assay: MIC, Salmonella typhosa H901
[15] = tested on: Staphylococcus aureus MS353 A0; assay: MIC, Staphylococcus aureus MS353 A0 (macrolide resistant); details: MS353A0, macrolide resistant bacteria A group
Text: as §1, §2

[16] = tested on: Micrococcus flavus ATCC 10240; assay: MIC, Micrococcus flavus ATCC 10240; details: ATCC10240
[17] = tested on: Pseudomonas aeruginosa IAM 1095; assay: MIC, Pseudomonas aeruginosa IAM 1095; details: IAM1095
[18] = tested on: Streptococcus pyogenes N.Y.5; assay: MIC, Streptococcus pyogenes N.Y.5; details: read-out: MIC
[19] = tested on: Streptococcus pyogenes 1022; assay: MIC, Streptococcus pyogenes 1022 (macrolide resistant); details: Streptococcus pyogenes 1022; macrolide resistant bacteria A group; read-out: MIC
Text: as §1, §2

[20] = Proteus vulgaris OX19, read-out: MIC
[21] = Salmonella enteritidis Gaertner, read-out: MIC
[22] = ATC6633, Bacillus subtilis ATC 6633, read-out: MIC
[23] = ATCC10031, Klebsiella pneumoniae ATCC 10031, read-out: MIC
[24] = Corynebacterium diptheriae P.Y.8, read-out: MIC
[25] = Enterococcus faecalis, Streptococcus faecalis 1501, read-out: MIC
[26] = Micrococcus flavus ATCC 10240, read-out: MIC
[27] = Pseudomonas aeruginosa IAM 1095, read-out: MIC

Compound | MIC [1] [µg/mL] | MIC (Proteus vulgaris OX19; [20]) [µg/mL] | MIC [4, 22] [µg/mL] | MIC [5, 23] [µg/mL] | MIC [6] [µg/mL] | MIC [7, 24] [µg/mL] | MIC (Shigella sonnei E33) [µg/mL] | MIC [8] [µg/mL] | MIC (Sarcina lutea ATCC 9341) [µg/mL] | MIC [9] [µg/mL] | MIC [10] [µg/mL] | MIC (Escherichia coli B) [µg/mL] | MIC [11] [µg/mL] | MIC [12] [µg/mL] | MIC [14, 25] [µg/mL] | MIC (Salmonella typhosa H901; Salmonella enterica, TYPHOSA) [µg/mL] | MIC [15] [µg/mL] | MIC [17, 27] [µg/mL] | MIC [18] [µg/mL] | MIC [19] [µg/mL] | also measured
CCC1OC(=O)CC(O)C(C)C(OC2OC(C)C(O)C(N(C)C)C2O)C(CC=O)CC(C)C(=O)C=CC(C)=CC1COc1ccccc1 (stereo not drawn) | ≤ 0.05 | 12.5 (≈ 18.6 µM) | ≤ 0.05 | 1.6 (≈ 2.37 µM) | ≤ 0.05 | ≤ 0.05 | 50 (≈ 74.2 µM) | ≤ 0.05 | ≤ 0.05 | 6.3 (≈ 9.35 µM) | 100 (≈ 148 µM) | 25 (≈ 37.1 µM) | 50 (≈ 74.2 µM) | ≤ 0.05 | ≤ 0.05 | 100 (≈ 148 µM) | 50 (≈ 74.2 µM) | 50 (≈ 74.2 µM) | ≤ 0.05 | 50 (≈ 74.2 µM) | MIC [2]: 100 µg/mL (≈ 148 µM); MIC [3, 21]: 100 µg/mL (≈ 148 µM); MIC (Serratia marcescens; read-out: MIC): 25 µg/mL (≈ 37.1 µM); MIC [13]: ≤ 0.05 µg/mL; MIC [16, 26]: ≤ 0.05 µg/mL
CCC1OC(=O)CC(O)C(C)C(OC2OC(C)C(O)C(N(C)C)C2O)C(CC=O)CC(C)C(=O)C=CC(C)=CC1COc1cccc(N(CC)CC)c1 (stereo not drawn) | 0.1 (≈ 0.134 µM) | 25 (≈ 33.6 µM) | 0.2 (≈ 0.268 µM) | 3.1 (≈ 4.16 µM) | 0.2 (≈ 0.268 µM) | ≤ 0.05 | > 100 | 0.8 (≈ 1.07 µM) | 0.1 (≈ 0.134 µM) | 50 (≈ 67.1 µM) | 25 (≈ 33.6 µM) | > 100 | > 100 | 0.4 (≈ 0.537 µM) | 0.2 (≈ 0.268 µM) | > 100 | 25 (≈ 33.6 µM) | > 100 | 0.1 (≈ 0.134 µM) | 12.5 (≈ 16.8 µM) | MIC [2]: 50 µg/mL (≈ 67.1 µM); MIC [3, 21]: > 100 µg/mL; MIC (Serratia marcescens; read-out: MIC): > 100 µg/mL; MIC [13]: 0.4 µg/mL (≈ 0.537 µM); MIC [16, 26]: 0.1 µg/mL (≈ 0.134 µM)
CCC1OC(=O)CC(O)C(C)C(OC2OC(C)C(O)C(N(C)C)C2O)C(CC=O)CC(C)C(=O)C=CC(C)=CC1CSC(C)c1ccccc1 (stereo not drawn) [23-(1-phenylethyl)thio-23-demycinosyl-23-deoxydesmycosin] | 0.1 (≈ 0.139 µM) | 12.5 (≈ 17.4 µM) | 0.2 (≈ 0.279 µM) | 3.1 (≈ 4.32 µM) | ≤ 0.05 | – | 50 (≈ 69.6 µM) | 0.2 (≈ 0.279 µM) | 0.05 (≈ 0.0696 µM) | – | – | – | 50 (≈ 69.6 µM) | 0.2 (≈ 0.279 µM) | 0.2 (≈ 0.279 µM) | 100 (≈ 139 µM) | 25 (≈ 34.8 µM) | > 100 | ≤ 0.05 | 25 (≈ 34.8 µM) | –
CC[C@H]1OC(=O)[C@H](C)[C@@H](O[C@H]2C[C@@](C)(OC)[C@@H](O)[C@H](C)O2)[C@H](C)[C@@H](O[C@@H]2O[C@H](C)C[C@H](N(C)C)[C@H]2O)[C@](C)(O)C[C@@H](C)C(=O)[C@H](C)[C@@H](O)[C@]1(C)O [EM, erythromycin, reference compound] | – | – | – | – | – | – | 100 (≈ 136 µM) | – | ≤ 0.05 | 12.5 (≈ 17 µM) | – | > 100 | 100 (≈ 136 µM) | – | – | 100 (≈ 136 µM) | – | – | – | – | MIC (Proteus vulgaris OX19; Proteus vulgaris OX19): 25 µg/mL (≈ 34.1 µM); MIC (Proteus vulgaris OX19; Proteus vulgaris, OX19, Proteus vulgaris OX19): 50 µg/mL (≈ 68.1 µM); MIC ([3]; ENTERITIDIS): 100 µg/mL (≈ 136 µM); MIC ([4]; Bacillus subtilis, ATC6633, Bacillus subtilis ATC 6633): 0.1 µg/mL (≈ 0.136 µM); MIC ([5]; Klebsiella pneumoniae, ATCC10031, Klebsiella pneumoniae ATCC 10031): 6.3 µg/mL (≈ 8.58 µM); MIC ([7]; Corynebacterium, P.Y.8): ≤ 0.05 µg/mL; MIC (Serratia marcescens): 100 µg/mL (≈ 136 µM); MIC [13]: 0.4 µg/mL (≈ 0.545 µM); MIC ([14]; Enterococcus faecalis, 1501, Streptococcus faecalis 1501): 0.2 µg/mL (≈ 0.273 µM); MIC (Salmonella typhosa H901): 50 µg/mL (≈ 68.1 µM); MIC ([16]; Micrococcus flavus): 0.1 µg/mL (≈ 0.136 µM); MIC ([17]; Pseudomonas aeruginosa): 100 µg/mL (≈ 136 µM)
CCC1OC(=O)CC(O)C(C)C(OC2OC(C)C(O)C(N(C)C)C2O)C(CC=O)CC(C)C(=O)C=CC(C)=CC1COC(c1ccccc1)(c1ccccc1)c1ccccc1 (stereo not drawn) [OC(C6 H5)3, 23-O-triphenylmethyl-23-demycinosyldesmycosin] | 1.6 (≈ 1.9 µM) | > 100 | 3.1 (≈ 3.69 µM) | > 100 | 1.6 (≈ 1.9 µM) | 0.1 (≈ 0.119 µM) | > 100 | 1.6 (≈ 1.9 µM) | 0.4 (≈ 0.476 µM) | – | 25 (≈ 29.8 µM) | – | > 100 | 1.6 (≈ 1.9 µM) | 1.6 (≈ 1.9 µM) | > 100 | 6.3 (≈ 7.5 µM) | > 100 | 0.8 (≈ 0.952 µM) | 3.1 (≈ 3.69 µM) | –
